# Residues, ends and D or L forms follow the SMILES beside them. *: point of attachment. Cbz = O=C(OCc1ccccc1)*
row,SMILES,melting point
1,ON=Cc1cccc(OCc2ccccc2)c1,58 to 59 °C
2,O=C(NCCn1cncn1)c1sc2ccccc2c1Cl,151 to 152 °C
3,O=C(O)CCCCN1C(=O)NC(=O)C1(c1ccccc1)c1ccccc1,207 °C
4,CCOC(=O)c1ccc(N(Cc2ccc(Cl)cc2)C(=O)OCC)cc1,43 to 46 °C
5,O=C(Cc1ccccc1Nc1c(Cl)cccc1Cl)OCCl,89 to 91 °C
6,COc1cc(O)c2c(c1)C1OC1CC(O)C(O)C(=O)C=CCC(C)OC2=O (stereo unspecified),173 to 174 °C
7,Cc1c(C)c2c(c(C)c1NC(=O)CC(C)(C)C)C(c1ccc(-c3ccccc3)cc1)CO2 (stereo unspecified),218 to 219 °C
8,Nc1nc(N)nc(-c2ccc(S(=O)c3ccccc3)cc2)n1 (stereo unspecified),253 to 255 °C
9,CS(=O)(=O)c1cc(C(=O)O)c(N)cc1Cl,284 to 286 °C
10,Cc1cc(F)ccc1-c1c(O)c(C)c(-c2ccccn2)oc1=O,123 to 125 °C
11,Cc1cc(Cc2ccc(NC(=O)N(C)C)cn2)n(C)c1C(=O)c1ccc(Cl)cc1,227 to 230 °C
12,COCc1nc(N)nc(N)c1-c1cccc(Cl)c1Cl,237 to 240 °C
13,CC(C)NC(=O)c1cnc(N2CCC(n3c(=O)oc4ccccc43)CC2)c(Cl)c1,162 to 168 °C
14,CC(C)NC(=O)N1CCC(Cc2ccc(NC3=NCCN3)cc2)CC1,191 to 192 °C
15,CS(=O)(=O)c1ccc(-n2nc(CNC(=O)NC34CC5CC(CC(C5)C3)C4)cc2-c2ccccc2)cc1,150 to 155 °C
16,O=C(NCc1ccncc1)c1ccnc(N2CCN(Cc3ccc(F)cc3)C2=O)c1,205 to 207 °C
17,CCOC(=O)C1=C(C(OCC)OCC)NC(C)=C(C(=O)OCc2ccccc2)C1c1ccccc1[N+](=O)[O-] (stereo unspecified),103 to 104 °C
18,CCOC(=O)C1CCN(c2nc(-c3ccc(Cl)cc3)c(CCCOc3ccccc3OC)o2)CC1,80 to 81 °C
19,O=C(OCc1ccc(Cl)cc1)C(=C1NCCCS1)[N+](=O)[O-],119 to 120 °C
20,CCc1ccc2c(c1)C(O)Cc1ccc(F)cc1S2 (stereo unspecified),97 °C
21,CCOC(=O)/C(=N\OC1CCS(=O)(=O)C1)c1csc(N)n1 (stereo unspecified),147 to 148 °C
22,C#CCOc1ccc(-c2nc3cnncc3[nH]2)c(OC)c1,224 °C
23,N#CC1(Nc2cccc(Cl)c2)CCN(C(=O)c2cc(C(F)(F)F)cc(C(F)(F)F)c2)CC1,205 to 207 °C
24,Clc1ccc(C2CCc3ccccc3O2)cc1 (stereo unspecified),76 to 77 °C
25,O=c1nc(-c2ccc(C(F)(F)F)cn2)sc2ccccc12,207 °C
26,Cc1cn(C(C)(C)C(=O)NCc2ccccc2)nc1-c1ccccc1,87 to 90 °C

row,SMILES,melting point
1,C=CCCCn1ncc2c(OCC)c(C(=O)OCC)cnc21,61 to 62 °C
2,Cc1cc(=O)[nH]nc1-c1ccc(-c2n[nH]c(=O)cc2C)cc1,> 250 °C
3,CC(C)(C)OC(=O)N[C@H]1CC[C@H](CC=O)CC1,61 to 63 °C
4,NNC(=O)NC(c1cccc(Cl)c1)c1ccnc2ccccc12 (stereo unspecified),187 °C
5,N=C(N)NCCCC(NC(=O)C1CCCN1C(=O)C(CCCCNC(=O)OCc1ccccc1)NC(=O)CNC(=O)OCc1ccccc1)C(=O)O (stereo unspecified) (Cbz-GK(Cbz)PR-OH; configuration not given here),175 °C
6,CCCn1cc(C(=O)O)c(=O)c2cnc(N3CCN(C)CC3)nc21,254 to 257 °C
7,CC(=O)c1nn(C)c2ccccc12,86 to 88 °C
8,CCCCCCCCCCCCCCCCOCC(O)COC(c1ccccc1)(c1ccccc1)c1ccccc1 (stereo unspecified),49 °C
9,Cc1cc(C2=NN=C(C(N)=O)Cc3cc4c(cc32)OCO4)ccc1[N+](=O)[O-],266 to 268 °C
10,Oc1ccc2c(c1)cc1n2CCC1,116 to 118 °C
11,CC1(C)OC(=O)Nc2ccc(-c3cc(C#N)cs3)cc21,255 to 260 °C
12,CCCCCCNC(=O)NOCC(O)CN1CCCCC1 (stereo unspecified),50 to 52 °C
13,COC(=O)CC1c2ccccc2C(=O)N1c1ccc(Cl)cn1 (stereo unspecified),110 to 111 °C
14,CCOC(=O)c1cc2c(OC)cc3c(c2[nH]1)CCCC3,202 to 203 °C
15,O=[N+]([O-])c1ccc(Br)cc1-c1cc(-c2cccc(Br)c2)no1,179 to 180 °C
16,CN(CCO)c1cc(Cl)nc(SCC(=O)O)n1,188 to 190 °C
17,CC1C(C)(C)c2ccc(C#Cc3ccc(C=O)cc3)cc2C1(C)C (stereo unspecified),106 to 107 °C
18,CC1(C)OC(CCN)CC(CC(=O)O)O1 (stereo unspecified),165 °C
19,O=[N+]([O-])c1cnc2ccccc2c1Cl,118 to 119 °C
20,COc1ccc([N+](=O)[O-])c(NC(=O)OC(C)(C)C)c1,112 to 114 °C
21,N[C@@H]1CCC(=O)N[C@@H]1c1cccc(OC(F)(F)F)c1 (relative stereo),126 to 130 °C
22,COC(=O)C1CC(C#N)(c2ccc(Cl)cc2)CCC1=O (stereo unspecified),141 to 144 °C
23,COC(=O)C(O)c1ccc(C#N)cc1 (stereo unspecified),51 to 52 °C
24,COCOc1ccc(Cl)cc1-c1cc(-c2cccc([N+](=O)[O-])c2)c(C#N)c(NC(=O)c2cccs2)n1,161 to 162 °C
25,CCc1cc(O)c(C(=O)CCc2ccc3occc3c2)c(OC2OC(CO)C(O)C(O)C2O)c1 (stereo unspecified),146 to 148 °C
26,Cc1cc2cccc([C@H](O)CO)c2nc1-c1ccccc1,117 °C

row,SMILES,melting point
1,Cc1cccc(C)c1OC1CN(C(c2ccccc2)c2ccccc2)C1,99 to 100 °C
2,O=[N+]([O-])c1ccc(-n2ccnn2)c(F)c1,123 to 124 °C
3,CCc1c(-c2ccc(OC)cc2)c2cc(C(C)=O)c3cc(OC)cc1n32,137 to 139 °C
4,Cc1nc(-n2ccc(OCc3ccc(F)cc3)cc2=O)sc1C(=O)NCc1cccnc1,231 to 233 °C
5,CCCCCCCNCc1cccc(OCCCNc2nc(N)nn2C)c1,64 to 65 °C
6,"CN(C)CCC1CCc2cc(OCc3cc4ccccc4o3)ccc2C1 (single isomer, unassigned; (+))",75 to 77 °C
7,CCc1nc(C(=O)c2ccc(Cl)cc2Cl)c(C(C)=O)n1C(CC)CC,63 to 64 °C
8,O=C1CCC(N2Cc3cc(CNC(=O)c4cccc(C(F)(F)F)c4)ccc3C2=O)C(=O)N1 (stereo unspecified),244 to 246 °C
9,CNc1nc2c(c(N3CCN(C=O)CC3)n1)SCCC2,149 to 151 °C
10,CNC(CNC(=O)c1nc(Cl)c(N)nc1N)CC(=O)NCCN (stereo unspecified),106 to 109 °C
11,O=C(O)CC[C@H](NC(=O)N1CCc2cc(S(=O)(=O)N3CCN(c4cccc(Cl)c4)CC3)ccc21)C(=O)O,181 to 182 °C
12,CN(C)C(=O)N(CCl)c1ccc(Cl)cc1,37 to 43 °C
13,Cn1ccc2cc(N3Cc4ccc(OC(F)(F)C(F)Cl)cc4C3=O)ccc21 (stereo unspecified),200 to 205 °C
14,CC(=O)N[C@@H](CSC(=O)C(C)C)C(=O)NCCSC(=O)C(C)C,99 to 100 °C
15,Cc1c(C(=O)N[C@H](C)[C@](O)(Cn2cncn2)c2ccc(F)cc2F)cnn1-c1ccccc1Cl,232 to 233 °C
16,NC(=O)Cn1c(-c2ccccc2)nc2cccnc21,226 to 227 °C
17,CCCCC(CC)COc1ccc(-c2c3ccc(O)cc3c(-c3ccc(OCC(CC)CCCC)cc3)c3ccc(O)cc23)cc1 (stereo unspecified),195 to 197 °C
18,O=C1c2ccccc2C(=O)N1CCc1c[nH]c(=O)[nH]c1=O,324 to 327 °C
19,NS(=O)(=O)c1ccc(-c2cnn(Cc3cccc(F)c3)c(=O)c2-c2ccc(F)cc2)cc1,220 to 222 °C
20,Cc1ccc2c(-c3cnc4[nH]cc(C(=O)N[C@H](C)C(=O)N5CC(C#N)C5)c4n3)nn(C)c2c1,260 to 275 °C
21,O=C(O)c1cccc2[nH]c(=O)c(-c3csc(-c4ccncc4)n3)cc12,> 250 °C
22,CCOP(=O)(OCC)C(CNc1nc(C)cc(Oc2ccc(Cl)cc2Cl)n1)P(=O)(OCC)OCC,76 to 77 °C
23,CCOC(=O)c1cc2c(F)cccc2[nH]c1=O,180 °C
24,O=C1CCCC(=O)C1=C(S)NCc1ccccc1,47 to 48 °C
25,Nc1ccccc1C(=O)NC(=O)Nc1ccc(Oc2ncc(Br)cn2)c(Cl)c1,196 to 200 °C
26,Cc1csc(-c2c(C)c(NC(=O)CC(C)(C)C)c(C)c3c2OCC3c2ccc(C(C)C)cc2)n1 (stereo unspecified),240 to 241 °C

row,SMILES,melting point
1,c1ccc2oc3cnnc-3cc2c1,215 °C
2,CN(C)C(=O)N=NC(=O)N(C)C,121 to 122 °C
3,O=c1[nH]c2cc([N+](=O)[O-])ccc2c(O)c1-c1ccccc1,> 330 °C
4,CC(C)CC(=O)Nc1cccc(-c2ccnc3c(-c4ccc(Cl)c(Cl)c4)cnn23)c1,215 to 217 °C
5,Cn1c(=O)c(-c2ccccc2)cc2cnc(N)nc21,250 to 255 °C
6,COc1ccc(NC=C(C#N)C(=O)Nc2cc(OC)c(Cl)cc2Cl)cc1F,275 to 276 °C
7,O=C(Nc1ccc(-n2nc(C(F)(F)F)cc2C(F)(F)F)cc1)c1ccc(F)c(Cl)c1,138 to 139 °C
8,FC1=CC(c2cccnc2)=CC2CCC(=S)NC12 (stereo unspecified),235 °C
9,CCCCCCC1CCC(c2ccc(CCCCC)cc2)OC1=O (stereo unspecified),101 to 102 °C
10,Cc1sc2c(c1C(=O)c1ccc([N+](=O)[O-])cc1)CCC2C(=O)O (stereo unspecified),156 to 158 °C
11,Cc1ccc2c(c1)CCC1=C2CCC(=O)N1,204 to 205 °C
12,CS(=O)(=O)c1ccc(-c2[nH]c3ccccc3c2-c2ccc(Cl)cc2)cc1,198 to 200 °C
13,COc1ccc(CCc2ccncc2)c2cc(C#N)nn12,191 to 192 °C
14,Cc1ccc(NC(=N)Nc2ncccc2OCc2c(F)cccc2Cl)cc1,136 to 138 °C
15,CC(C)(C)c1cc(C#N)c(O)cn1,185 to 195 °C
16,C1COCCN2CCSCCSCCN(CCO1)CCSCCSCC2,86 °C
17,CCOc1ccc(C2C(=O)Oc3c2cc(C(C)(C)C)cc3C(C)(C)C)cc1 (stereo unspecified),132 to 134 °C
18,CN(CC=C(F)C(F)(F)C(F)(F)C(F)(F)F)CCCCCC1Cc2cc(O)ccc2C2C(F)CC3(C)C(O)CCC3C12 (stereo unspecified),130 °C
19,N/C(=C1/Sc2ccccc2C1=O)c1ccccc1[N+](=O)[O-],185 to 186 °C
20,NC(=S)NCCC(O)(c1ccc(F)cc1)c1ccccn1 (stereo unspecified),148 to 149 °C
21,CN(c1cccnc1Cl)S(=O)(=O)c1ccccc1[N+](=O)[O-],116 to 118 °C
22,CCCN(CCC)C(=O)CNc1nc(-c2ccccc2)nc(CC)c1C,83 to 84 °C
23,c1ccc(C2(c3ccccc3)SCCS2)cc1,104 to 105 °C

# From a melting point compilation (Tetko et al.; mined from patent text by program, amines drawn as free bases though some values may be those of a salt)
